# Results taken from patent US12559474B2, “Triazine derivatives having virus replication inhibitory activity and pharmaceutical composition comprising the same” (priority 2021, dated 2026).
# Read-outs that look alike come from different tables or passages of the source.
# Experiments:
# SARS-CoV-2 = test: microbe, parasite or virus in culture; assay type: cell-based; conditions: Severe acute respiratory syndrome coronavirus 2, VeroE6/TMPRSS2, 72 h, 50% SARS-CoV-2 infected cell death inhibitory concentration, VeroE6/TMPRSS2 cells, 3 days culture
# SARS-CoV-2 3CL protease = SARS-CoV-2 3CL protease (Severe acute respiratory syndrome coronavirus 2, UniProt P0DTD1); test: biochemical; conditions: 50% SARS-CoV-2 3CL protease inhibitory concentration, read-out: IC50
SMILES,EC50 (SARS-CoV-2; class symbols),IC50 (SARS-CoV-2 3CL protease; given as class symbols),EC50 (SARS-CoV-2; CellTiter-Glo 2.0),IC50 (SARS-CoV-2 3CL protease; RapidFire MS)
COc1ccc(Nc2nc(=O)n(Cc3ncn(C)n3)c(=O)n2Cc2cc(F)c(F)c(F)c2)c(Cl)c1 [Compound I-0346],< 1000 nM,< 100 nM,–,–
N#Cc1cc(Cn2c(Nc3ccc4c(c3)CCO4)nc(=O)n(-c3cncc(Cl)c3)c2=O)ccc1F [Compound I-0348],< 1000 nM,< 100 nM,–,–
N#Cc1cc(Cn2c(Nc3ccc4c(c3)CCO4)nc(=O)n(-c3cncc(C(F)F)c3)c2=O)ccc1F [Compound I-0349],1000 to 10000 nM,< 100 nM,–,–
N#Cc1cc(Cn2c(Nc3ccc4c(c3)CCO4)nc(=O)n(-c3cncc(F)c3)c2=O)ccc1F [Compound I-0350],< 1000 nM,< 100 nM,–,–
N#Cc1cc(Cn2c(Nc3ccc4c(c3)CCO4)nc(=O)n(-c3cncc4ccccc34)c2=O)ccc1F [Compound I-0351],–,–,74.7 nM,4.3 nM
N#Cc1cc(Cn2c(Nc3ccc4nn(CC(F)F)cc4c3)nc(=O)n(-c3cncc4ccccc34)c2=O)ccc1F [Compound I-0352],< 1000 nM,< 100 nM,–,–
Cn1cc2cc(Nc3nc(=O)n(-c4cncc5ccccc45)c(=O)n3Cc3ccc(F)c(C#N)c3)ccc2n1 [Compound I-0353],–,–,306 nM,5.4 nM
Cc1cncc(-n2c(=O)nc(Nc3ccc4c(c3)CCO4)n(Cc3ccc(F)c(C#N)c3)c2=O)c1 [Compound I-0354],–,–,107 nM,5 nM
Cc1cncc(-n2c(=O)nc(Nc3ccc4nn(CC(F)F)cc4c3)n(Cc3ccc(F)c(C#N)c3)c2=O)c1 [Compound I-0355],< 1000 nM,< 100 nM,339 nM,8.7 nM
O=c1[nH]cccc1Cn1c(=O)nc(Nc2cc3cn(C(F)F)nc3cc2Cl)n(Cc2cc(F)c(F)c(F)c2)c1=O [Compound I-0357],1000 to 10000 nM,< 100 nM,–,–
COc1ccc(Nc2nc(=O)n(Cc3ccc(C)[nH]c3=O)c(=O)n2Cc2cc(F)c(F)c(F)c2)cc1 [Compound I-0358],–,100 to 1000 nM,7450 nM,120 nM
Cn1cc2cc(Nc3nc(=O)n(Cc4cc(Cl)c[nH]c4=O)c(=O)n3Cc3ccc(F)c(C#N)c3)c(Cl)cc2n1 [Compound I-0359],1000 to 10000 nM,< 100 nM,–,–
Cn1nc2cc(Cl)c(Nc3nc(=O)n(Cc4cccnc4O)c(=O)n3Cc3cc(F)c(F)c(F)c3)cc2c1CCCO [Compound I-0364],1000 to 10000 nM,< 100 nM,–,–
COCCCc1c2cc(Nc3nc(=O)n(Cc4ccc[nH]c4=O)c(=O)n3Cc3cc(F)c(F)c(F)c3)c(Cl)cc2nn1C [Compound I-0365],1000 to 10000 nM,< 100 nM,–,–
CC(C)n1cc2cc(Nc3nc(=O)n(Cc4cccnc4O)c(=O)n3Cc3cc(F)c(F)c(F)c3)c(Cl)cc2n1 [Compound I-0366],1000 to 10000 nM,< 100 nM,–,–
CNC(=O)Cn1cc2cc(Nc3nc(=O)n(Cc4ccc[nH]c4=O)c(=O)n3Cc3cc(F)c(F)c(F)c3)c(Cl)cc2n1 [Compound I-0368],1000 to 10000 nM,< 100 nM,–,–
Cc1cc2nn(C)cc2cc1Nc1nc(=O)n(-c2cccc3cnccc23)c(=O)n1Cc1cc(F)c(F)c(F)c1 [Compound I-0369],1000 to 10000 nM,< 100 nM,–,–
Cc1nc2cc(Cl)c(Nc3nc(=O)n(Cc4ccc[nH]c4=O)c(=O)n3Cc3cc(F)c(F)c(F)c3)cc2s1 [Compound I-0370],1000 to 10000 nM,< 100 nM,–,–
O=c1[nH]cccc1Cn1c(=O)nc(Nc2cc3c(cc2Cl)OCCC3)n(Cc2cc(F)c(F)c(F)c2)c1=O [Compound I-0372],< 1000 nM,< 100 nM,–,–
COc1ccc(Nc2nc(=O)n(-c3cncc(C)c3)c(=O)n2Cc2cc(F)c(F)c(F)c2)cc1 [Compound I-0374],1000 to 10000 nM,< 100 nM,–,–
COc1ccc(Nc2nc(=O)n(-c3cncc4ccccc34)c(=O)n2Cc2ccc(F)c(C#N)c2)cc1 [Compound I-0377],–,–,72.9 nM,8 nM
Cn1cc2cc(Nc3nc(=O)n(-c4cncc5ccccc45)c(=O)n3Cc3cc(F)c(F)c(F)c3)c(Cl)cc2n1 [Compound I-0378],< 1000 nM,< 100 nM,–,–
Cn1cc2cc(Nc3nc(=O)n(-c4cncc5ccccc45)c(=O)n3Cc3ccc(F)c(C#N)c3)c(Cl)cc2n1 [Compound I-0379],< 1000 nM,< 100 nM,–,–
Cn1cc2cc(Nc3nc(=O)n(-c4cncc5ccccc45)c(=O)n3Cc3cc(F)c(F)c(F)c3)ccc2n1 [Compound I-0380],< 1000 nM,< 100 nM,–,–
O=c1[nH]cccc1Cn1c(=O)nc(Nc2cc3cn(CCOC(F)(F)F)nc3cc2Cl)n(Cc2cc(F)c(F)c(F)c2)c1=O [Compound I-0381],1000 to 10000 nM,< 100 nM,–,–
O=c1[nH]cccc1Cn1c(=O)nc(Nc2cc3cn(C4COC4)nc3cc2Cl)n(Cc2cc(F)c(F)c(F)c2)c1=O [Compound I-0382],1000 to 10000 nM,< 100 nM,–,–

SMILES,EC50 (SARS-CoV-2; class symbols),IC50 (SARS-CoV-2 3CL protease; given as class symbols),EC50 (SARS-CoV-2; CellTiter-Glo 2.0),IC50 (SARS-CoV-2 3CL protease; RapidFire MS)
Cc1cncc(-n2c(=O)nc(Nc3cc4cn(C)nc4cc3Cl)n(Cc3ccc(F)c(C#N)c3)c2=O)c1 [Compound I-0383],–,–,96 nM,3.4 nM
Cc1cncc(-n2c(=O)nc(Nc3cc4cn(C)nc4cc3F)n(Cc3ccc(F)c(C#N)c3)c2=O)c1 [Compound I-0384],< 1000 nM,< 100 nM,–,–
Cc1cncc(-n2c(=O)nc(Nc3cc4cn(C)nc4cc3C)n(Cc3ccc(F)c(C#N)c3)c2=O)c1 [Compound I-0385],< 1000 nM,< 100 nM,–,–
Cc1nc2cc(Cl)c(Nc3nc(=O)n(Cc4cc5ccsc5[nH]c4=O)c(=O)n3Cc3cc(F)c(F)c(F)c3)cc2n1C [Compound I-0390],1000 to 10000 nM,< 100 nM,3160 nM,4 nM
O=c1[nH]cc(Cl)cc1Cn1c(=O)nc(Nc2cc3c(cc2Cl)OCC3)n(Cc2cc(F)c(F)c(F)c2)c1=O [Compound I-0391],–,–,460 nM,7.6 nM
O=c1[nH]cccc1Cn1c(=O)nc(Nc2ccc(OC3CC3)cc2Cl)n(Cc2cc(F)c(F)c(F)c2)c1=O [Compound I-0392],1000 to 10000 nM,< 100 nM,–,–
O=c1[nH]cccc1Cn1c(=O)nc(Nc2cc3cn(CCCOC(F)(F)F)nc3cc2Cl)n(Cc2cc(F)c(F)c(F)c2)c1=O [Compound I-0400],1000 to 10000 nM,< 100 nM,–,–
O=c1nc(Nc2cc3cn(CCN4CCOCC4)nc3cc2Cl)n(Cc2cc(F)c(F)c(F)c2)c(=O)n1-c1cncc2ccccc12 [Compound I-0401],1000 to 10000 nM,< 100 nM,–,–
C[C@H](O)Cn1cc2cc(Nc3nc(=O)n(Cc4cc(Cl)c[nH]c4=O)c(=O)n3Cc3cc(F)c(F)c(F)c3)c(Cl)cc2n1 [Compound I-0402],1000 to 10000 nM,< 100 nM,–,–
COc1ccc(Nc2nc(=O)n(Cc3c[nH]c(=O)[nH]c3=O)c(=O)n2Cc2cc(F)c(F)c(F)c2)c(Cl)c1 [Compound I-0404],1000 to 10000 nM,< 100 nM,–,–
O=c1[nH]cc(Cn2c(=O)nc(Nc3cc4c(cc3Cl)OCC4)n(Cc3cc(F)c(F)c(F)c3)c2=O)c(=O)[nH]1 [Compound I-0406],1000 to 10000 nM,< 100 nM,–,–
N#Cc1cc(Cn2c(Nc3cc4c(cc3Cl)OCC4)nc(=O)n(Cc3cc(Cl)c[nH]c3=O)c2=O)ccc1F [Compound I-0408],1000 to 10000 nM,< 100 nM,–,–
Cn1cnc(Cn2c(=O)nc(Nc3cc4cn(C)nc4cc3Cl)n(Cc3cc(F)c(F)c(F)c3)c2=O)n1 [Compound I-0421],< 1000 nM,< 100 nM,450 nM,10 nM
Cc1nc2cc(Cl)c(Nc3nc(=O)n(Cc4ncn(C)n4)c(=O)n3Cc3cc(F)c(F)c(F)c3)cc2n1C [Compound I-0422],1000 to 10000 nM,< 100 nM,–,–
O=c1[nH]cccc1Cn1c(=O)nc(Nc2cc3cn(CC4(O)CCC4)nc3cc2Cl)n(Cc2cc(F)c(F)c(F)c2)c1=O [Compound I-0423],1000 to 10000 nM,< 100 nM,–,–
C[C@H](O)Cn1cc2cc(Nc3nc(=O)n(Cc4ccc[nH]c4=O)c(=O)n3Cc3cc(F)c(F)c(F)c3)c(Cl)cc2n1 [Compound I-0424],1000 to 10000 nM,< 100 nM,–,–
C[C@@H](O)Cn1cc2cc(Nc3nc(=O)n(Cc4ccc[nH]c4=O)c(=O)n3Cc3cc(F)c(F)c(F)c3)c(Cl)cc2n1 [Compound I-0425],1000 to 10000 nM,< 100 nM,–,–
Cn1cnc(Cn2c(=O)nc(Nc3cc4cn(C)nc4cc3Cl)n(Cc3cc(F)c(F)c(F)c3)c2=O)c1 [Compound I-0426],–,–,1030 nM,6.3 nM
N#Cc1cc(Cn2c(Nc3cc4cn(C(F)F)nc4cc3Cl)nc(=O)n(-c3cncc4ccccc34)c2=O)ccc1F [Compound I-0428],< 1000 nM,< 100 nM,–,–
Cn1cc2cc(Nc3nc(=O)n(-c4cncc5ccccc45)c(=O)n3Cc3ccc(F)c(C#N)c3)c(F)cc2n1 [Compound I-0429],< 1000 nM,< 100 nM,–,–
Cc1cncc(-n2c(=O)nc(Nc3cc4cn(C(F)F)nc4cc3Cl)n(Cc3ccc(F)c(C#N)c3)c2=O)c1 [Compound I-0430],< 1000 nM,< 100 nM,–,–
Cc1cc2nn(C)cc2cc1Nc1nc(=O)n(-c2cncc3ccccc23)c(=O)n1Cc1ccc(F)c(C#N)c1 [Compound I-0431],< 1000 nM,< 100 nM,–,–
Cn1cnc(Cn2c(=O)nc(Nc3cc4cn(CCO)nc4cc3Cl)n(Cc3cc(F)c(F)c(F)c3)c2=O)n1 [Compound I-0432],1000 to 10000 nM,< 100 nM,–,–
Cn1cnc(Cn2c(=O)nc(Nc3cc4cn(CC(F)F)nc4cc3Cl)n(Cc3cc(F)c(F)c(F)c3)c2=O)n1 [Compound I-0433],< 1000 nM,< 100 nM,720 nM,10 nM
Cn1cnc(Cn2c(=O)nc(Nc3cc4cn(C(F)F)nc4cc3Cl)n(Cc3cc(F)c(F)c(F)c3)c2=O)n1 [Compound I-0434],1000 to 10000 nM,< 100 nM,–,–
N#Cc1cc(Cn2c(Nc3cc4cn(CCO)nc4cc3Cl)nc(=O)n(-c3cccc4ccccc34)c2=O)ccc1F [Compound I-0435],1000 to 10000 nM,< 100 nM,–,–
